From the supplement of paper PMC4862054

Experiments:
Details in all cases: incubation time: 72 h
[1] = system: MDA-MB-231; test: normalised response (% of control), CellTox Green; higher = less cell death (100 = DMSO, 0 = benzethonium chloride kill control)
In short: (§1)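 CellTox Green fluorescence (485/520 nm) and, after 10 min at room temperature, CellTiter-Glo luminescence were read from breast cancer cell lines incubated 72 h in 384-well plates. Cells were seeded as 20 µl suspension onto compound at 5 concentrations in 10-fold steps over a 10,000-fold range chosen per compound. Each plate was normalised to 0.1 % DMSO (100) and a positive kill control (0). Values are normalised signals, one per concentration.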

[2] = system: HCC1599; test: as above
In short: as §1

[3] = system: MDA-MB-436; test: as above
In short: as §1

[4] = system: BT-549; test: as above
In short: as §1

[5] = system: MDA-MB-453; test: as above
In short: as §1

[6] = system: DU-4475; test: as above
In short: as §1

[7] = system: MFM-223; test: as above
In short: as §1

[8] = system: MDA-MB-468; test: as above
In short: as §1

[9] = system: MCF-10A; test: as above
In short: as §1

[10] = system: HDQ-P1; test: as above
In short: as §1

[11] = system: CAL-51; test: as above
In short: as §1

[12] = system: CAL-148; test: as above
In short: as §1

[13] = system: HCC1143; test: as above
In short: as §1

[14] = system: HCC1937; test: as above
In short: as §1

[15] = system: BT-474; test: as above
In short: as §1

[16] = system: CAL-120; test: as above
In short: as §1

[17] = system: CAL-85-1; test: as above
In short: as §1

[18] = system: MDA-MB-231; test: normalised response (% of control), CellTiter-Glo; higher = more viable cells (100 = DMSO, 0 = benzethonium chloride kill control)
Description: (§2)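 DSRT, 72 h incubation, CellTox Green / CellTiter-Glo readout. Signal is normalised to DMSO and benzethonium chloride controls. Value is the normalised response at dose 3.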

[19] = system: Hs578T; test: as above
Description: as §2

[20] = system: HCC1599; test: as above
Description: as §2

[21] = system: MDA-MB-436; test: as above
Description: as §2

[22] = system: BT-549; test: as above
Description: as §2

[23] = system: MDA-MB-453; test: as above
Description: as §2

[24] = system: DU-4475; test: as above
Description: as §2

[25] = system: MFM-223; test: as above
Description: as §2

[26] = system: MDA-MB-468; test: as above
Description: as §2

[27] = system: MCF-10A; test: as above
Description: as §2

[28] = system: HDQ-P1; test: as above
Description: as §2

[29] = system: CAL-51; test: as above
Description: as §2

[30] = system: CAL-148; test: as above
Description: as §2

[31] = system: HCC1143; test: as above
Description: as §2

[32] = system: HCC1937; test: as above
Description: as §2

[33] = system: BT-474; test: as above
Description: as §2

[34] = system: CAL-120; test: as above
Description: as §2

[35] = system: CAL-85-1; test: as above
Description: as §2

[36] = system: SK-BR-3; test: as above
Description: as §2

[37] = system: Hs578T; test: normalised response (% of control), CellTox Green; higher = less cell death (100 = DMSO, 0 = benzethonium chloride kill control)
In short: as §1

| SMILES | normalised response [1] | normalised response [2] | normalised response [3] | normalised response [4] | normalised response [5] | normalised response [6] | normalised response [7] | normalised response [8] | normalised response [9] | normalised response [10] | normalised response [11] | normalised response [12] | normalised response [13] | normalised response [14] | normalised response [15] | normalised response [16] | normalised response [17] | normalised response [18] | normalised response [19] | normalised response [20] | normalised response [21] | normalised response [22] | normalised response [23] | normalised response [24] | normalised response [25] | normalised response [26] | normalised response [27] | normalised response [28] | normalised response [29] | normalised response [30] | normalised response [31] | normalised response [32] | normalised response [33] | normalised response [34] | normalised response [35] | normalised response [36] | normalised response [37] |
| --- | --- | --- | --- | --- | --- | --- | --- | --- | --- | --- | --- | --- | --- | --- | --- | --- | --- | --- | --- | --- | --- | --- | --- | --- | --- | --- | --- | --- | --- | --- | --- | --- | --- | --- | --- | --- | --- |
| CC(=O)O[C@]1(C(C)=O)CC[C@H]2[C@@H]3C=C(C)C4=CC(=O)CC[C@]4(C)[C@H]3CC[C@@]21C [Megestrol acetate] (100 nM) | 116% | 83.5% | 107% | 95.4% | 104% | 99.9% | 99.2% | 149% | 64.5% | 81.5% | 105% | 66.4% | 74% | 68.3% | 101% | 103% | 103% | 111% | 106% | 102% | 101% | 109% | 86.9% | 99.4% | 99.1% | 90.4% | 104% | 95.6% | 109% | 97.4% | 95.7% | 104% | 109% | 96.5% | 104% | 94.3% | – |
| COc1cccc2cc(-c3nc([C@H]4CC[C@H](C(=O)O)CC4)n4ncnc(N)c34)[nH]c12 [OSI-027] (100 nM) | 76.7% | 102% | – | 93.2% | 101% | 98.5% | 105% | 77.1% | 98.3% | 114% | 105% | 102% | – | 90.9% | 99.4% | 97.6% | 95.9% | 95.3% | 95.3% | 114% | 92% | 98.3% | 74.2% | 100% | 91.3% | 92.1% | 86.7% | 97% | 103% | 100% | 101% | 98.2% | 94.8% | 92.9% | 96.6% | 77.3% | 108% |
| OC[C@H]1O[C@@H](n2cnc3c2N=CNC[C@H]3O)C[C@@H]1O [Pentostatin] (100 nM) | 123% | 100% | 90.5% | 99.5% | 103% | 101% | 99.5% | 104% | 94.7% | 77.7% | 102% | 55.8% | 88.7% | 96.4% | 101% | 103% | 106% | 106% | 104% | 107% | 96.6% | 96.1% | 101% | 106% | 100% | 96.9% | 102% | 99% | 86.6% | 97.8% | 104% | 99.4% | 93.3% | 103% | 100% | 100% | – |
| N#CC[C@H](C1CCCC1)n1cc(-c2ncnc3[nH]ccc23)cn1 [Ruxolitinib] (100 nM) | – | 95% | 83.7% | 108% | 99% | 96.2% | 98.4% | 52.5% | 86.5% | 94.4% | 99.5% | 78.4% | 96.9% | 91.7% | 97.1% | 103% | 97.7% | 97.9% | 94.4% | 94% | 93.8% | 103% | 85.7% | 95.8% | 90.5% | 96.6% | 84.2% | 100% | 113% | 87.1% | 98.2% | 102% | 96.6% | 96.3% | 95.1% | 88.4% | 60.9% |
